Assay results: US11485720B2, “Anti-infective agents” (University of Dundee, priority 2016, dated 2022)
≈ marks a conversion by molar mass, not a printed value.

Columns and labels:
THP-1 cells = assay: THP-1 host cell count in intramacrophage Leishmania assay; format: cell-based; settings: Homo sapiens, host cell toxicity, read-out: THP1 pEC50 (converted)
Procedure: The intramacrophage Leishmania assay was performed as described in de Rycker et al (Antimicrob Agents Chemother, 2013 July; 57(7):2913-22. doi: 10.1128/AAC.02398-12). Briefly, 1 μl of compound was pre-dispensed into 384 well sterile intermediary plates. For single point screening, amphotericin B was added to all wells of column 24 as a positive control (final concentration 2 μM) and DMSO to column 23. For potency determinations, ten-point, one in three dilution curves were created with the highest concentration being 50 μM and on each plate a control curve of amphotericin B was included. Controls were as follows: columns 11 and 12: DMSO, columns 23 and 24: amphotericin B (final concentration 2 μM). To the intermediary plates, 100 μl of THP-1 media was added and plates were shaken for >5 min to ensure complete mixing. THP-1 cells (8,000 per well, 50 μl) were plated into black clear-bottom 384 well plates (Corning) in presence of 10 nM PMA. After 20 min at room temperature, the plates were incubated at 37° C. under 5% CO2 in a humidified incubator for 75 h. The cells were then washed with […] sterile phosphate buffered saline (PBS) supplemented with 1 mM CaCl2, 0.5 mM MgCl2, 0.1% (w/v) bovine serum albumin (PBS-A) and amastigotes were added to all wells at a multiplicity of infection of 5 (40,000 amastigotes per well). After 40 min at room temperature, plates were returned to the incubator. Amastigotes were incubated in the presence of macrophages for 16 h. Any remaining extracellular amastigotes were subsequently removed with an overflow wash of 1 ml PBS-A per well (wash buffer is being aspirated from the top of the well as it is being dispensed) followed by addition of 25 μl of the compound pre-dilutions using a Matrix Hydra DT pipetting station. The final dilution of each compound was 200-fold. Plates were incubated for 72 h and then washed (250 μl PBS-A) and fixed (4% (v/v) formaldehyde-PBS, 30 min, room temperature). After fixation, the wells were washed with 250 μl PBS, stained (10 μg/ml DAPI, 0.4 μg ml-1 HCS Cellmask Deep Red in PBS+0.1% (v/v) Triton X-100, 30 min, room temperature) and washed with 250 μl PBS. Finally, PBS+0.05% (v/v) thimerosal was added to the wells, the plates were sealed and imaged on a high-content microscope (GE IN Cell 1000 or GE IN Cell 2000) using a 10× objective. Image analysis was carried out with GE IN Cell Analyzer 1000 Workstation using the “Multi Target Analysis” module. Settings for segmentation were as follows: nuclei: minimum area: 142.384 μm^2, sensitivity: 81, method: top-hat; cells: characteristic area: 2500 μm^2, sensitivity: 60, method: multiscale top-hat; organelles (amastigotes): granule size 1-3, 3 scales, sensitivity: 90, detection in entire cell. […]

M. tuberculosis H37Rv = assay: In vitro inhibition of M. tuberculosis H37Rv (MIC, resazurin); format: cell-based; settings: Mycobacterium tuberculosis, read-out: Mtb MIC
[1] = biological target: T1, Plasmodium falciparum lysyl t-RNA synthetase (Pf-KRS1) (Plasmodium falciparum, UniProt Q8IDJ8); assay: Pf-KRS1 inhibition biochemical assay (Kinase-Glo, ATP depletion); settings: read-out: Pf-KRS pIC50 (converted)
T1 construct: Pf KRS1-; made in house; host or cells: E. coli BL21 (DE3)
In short: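 Recombinant Pf-KRS1 (75 nM working concentration) in HEPES/KOH/MgCl2/KCl buffer with 3 μM ATP, 60 μM L-lysine, 0.4 mg/ml yeast tRNA and pyrophosphatase; compounds at 50 μM–2.5 nM final. Reaction ran 5 h at room temperature, then remaining ATP was read by Kinase-Glo luminescence. IC50 came from nonlinear fits of % inhibition against controls.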

Leishmania donovani = Leishmania donovani intramacrophage inhibition assay (Ld-INMAC); format: cell-based; settings: intramacrophage amastigotes in THP-1 cells, read-out: Ld-INMAC pEC50 (converted)
Procedure: Assay Method for Measurement of In Vitro Inhibition of Leishmania donovani.
These experiments were run in accordance with the method as detailed herein and results from these experiments are provided in the Experimental Results hereinafter.
The intramacrophage Leishmania assay was performed as described in de Rycker et al (Antimicrob Agents Chemother, 2013 July; 57(7):2913-22. doi: 10.1128/AAC.02398-12). Briefly, 1 μl of compound was pre-dispensed into 384 well sterile intermediary plates. For single point screening, amphotericin B was added to all wells of column 24 as a positive control (final concentration 2 μM) and DMSO to column 23. For potency determinations, ten-point, one in three dilution curves were created with the highest concentration being 50 μM and on each plate a control curve of amphotericin B was included. Controls were as follows: columns 11 and 12: DMSO, columns 23 and 24: amphotericin B (final concentration 2 μM). To the intermediary plates, 100 μl of THP-1 media was added and plates were shaken for >5 min to ensure complete mixing. THP-1 cells (8,000 per well, 50 μl) were plated into black clear-bottom 384 well plates (Corning) in presence of 10 nM PMA. After 20 min at room temperature, the plates were incubated at 37° C. under 5% CO2 in a humidified incubator for 75 h. The cells were then washed with […] sterile phosphate buffered saline (PBS) supplemented with 1 mM CaCl2, 0.5 mM MgCl2, 0.1% (w/v) bovine serum albumin (PBS-A) and amastigotes were added to all wells at a multiplicity of infection of 5 (40,000 amastigotes per well). After 40 min at room temperature, plates were returned to the incubator. Amastigotes were incubated in the presence of macrophages for 16 h. Any remaining extracellular amastigotes were subsequently removed with an overflow wash of 1 ml PBS-A per well (wash buffer is being aspirated from the top of the well as it is being dispensed) followed by addition of 25 μl of the compound pre-dilutions using a Matrix Hydra DT pipetting station. The final dilution of each compound was 200-fold. Plates were incubated for 72 h and then washed (250 μl PBS-A) and fixed (4% (v/v) formaldehyde-PBS, 30 min, room temperature). After fixation, the wells were washed with 250 μl PBS, stained (10 μg/ml DAPI, 0.4 μg ml-1 HCS Cellmask Deep Red in PBS+0.1% (v/v) Triton X-100, 30 min, room temperature) and washed with 250 μl PBS. Finally, PBS+0.05% (v/v) thimerosal was added to the wells, the plates were sealed and imaged on a high-content microscope (GE IN Cell 1000 or GE IN Cell 2000) using a 10× objective. Image analysis was carried out with GE IN Cell Analyzer 1000 Workstation using the “Multi Target Analysis” module. […]

T1 sequence (Q8IDJ8 entry or part of it, looked up, natural form): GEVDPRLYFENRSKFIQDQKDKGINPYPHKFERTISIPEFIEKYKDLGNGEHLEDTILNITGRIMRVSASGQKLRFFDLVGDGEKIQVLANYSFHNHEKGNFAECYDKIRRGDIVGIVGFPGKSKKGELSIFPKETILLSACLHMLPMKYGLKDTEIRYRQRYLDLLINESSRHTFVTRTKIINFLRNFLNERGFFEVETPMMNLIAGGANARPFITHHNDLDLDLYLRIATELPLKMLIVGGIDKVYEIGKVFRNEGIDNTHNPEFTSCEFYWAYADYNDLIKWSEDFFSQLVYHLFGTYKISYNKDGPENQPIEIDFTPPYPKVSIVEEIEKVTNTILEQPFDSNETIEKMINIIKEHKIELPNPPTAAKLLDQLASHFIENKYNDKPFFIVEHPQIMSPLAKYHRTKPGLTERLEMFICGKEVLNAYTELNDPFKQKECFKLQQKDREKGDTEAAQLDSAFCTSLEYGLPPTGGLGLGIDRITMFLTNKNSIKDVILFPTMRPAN

O=C(NCC1CCCCC1)c1cc(=O)c2cc(F)cc(O)c2o1 [Example 70, N-(cyclohexylmethyl)-6-fluoro-8-hydroxy-4-oxo-4H-chromene-2-carboxamide]
EC50 (THP-1 cells): 50.1 µM | MIC (M. tuberculosis H37Rv): 30 µM (≈ 9.58 µg/mL) | IC50 [1]: 0.0501 µM | EC50 (Leishmania donovani): 15.8 µM
